{"source": "patent US12611470B2", "about": "“Chromatin-opening element for stable long term gene expression” (CZ Biohub SF, LLC, priority 2019, dated 2026)", "molecules": {"B1": {"name": "EF1a promoter: Elongation Factor 1 promoter, positive control for promoter activity (nucleic acid)", "DNA": "AATGTAGTCTTATGCAATACTCTTGTAGTCTTGCAACATGGTAACGATGAGTTAGCAACATGCCTTACAAGGAGAGAAAAAGCACCGTGCATGCCGATTGGTGGAAGTAAGGTGGTACGATCGTGCCTTATTAGGAAGGCAACAGACGGGTCTGACATGGATTGGACGAACCACTGAATTCCGCATTGCAGAGATATTGTATTTAAGTGCCTAGCTCGATACAATAAACGCCATTTGACCATTCACCACATTGGTGTGCACC", "modifications": "Rous sarcoma virus"}}, "key": {"Transduced P19 cells": {"tested_on": "Transduced P19 cells", "test": "Epigenetic effector experiments: rescue of GFP expression in silenced transduced cells", "assay_type": "cell-based, mouse", "conditions": "for reactivation of GFP expression: all examined populations, range of concentrations; for silenced cells rescued: RSV promoter-only construct, 24 h treatment", "experimental": "(§1) GFP expression is rescued by treatment with DNA methylation inhibitor 5-aza-cytidine (5-aza) in day 18 UCOE-RSV cells from the lentiviral silencing experiment. Cells were replica plated at day 16, specified concentrations of 5-aza were introduced 24 hours later (with exception of control), and cells were passaged and assayed via flow cytometry 24 hours after chemical introduction for % GFP+ cells. Data is reported as mean±SD from three biological replicates.\nas §1, with “HDAC” for “DNA methylation”, “trichostatin A (TSA)” for “5-aza-cytidine (5-aza)”, “24” for “18”, “22,” for “16,”, “TSA” for “5-aza”, “mean f SD” for “mean±SD”\nCells were replica plated at day 16, specified concentrations of 5-aza were introduced 24 hours later (with exception of control), and cells were passaged and assayed via flow cytometry 24 hours after chemical introduction for % GFP+ cells. Data is reported as mean±SD from three biological replicates. In the graph, data is shown from left to right for each construct: no treatment, 2 μM 5-aza, 10 μM 5-aza. […] Cells were replica plated at day 22, specified concentrations of TSA were introduced 24 hours later (with exception of control), and cells were passaged and assayed via flow cytometry 24 hours after chemical introduction for % GFP+ cells. Data is reported as mean f SD from three biological replicates. In the graph, data is shown from left to right for each construct: no treatment, 0.05 μM TSA, 0.1 μM TSA. […] Cells were replica plated at day 19, treated with 0.1 μM TSA or 10 μM 5-aza (with exception of control) 24 hours later, and cells were passaged and assayed via flow cytometry 24 hours after chemical introduction for % GFP+ cells. Data is reported as mean f SD from three biological replicates. In the graphs for FIG. 6C and FIG. 6D, the data is shown from left to right for each construct: no treatment, 0.1 μM TSA, 10 μM 5-aza.\nReplica-plated cell populations were treated with varying concentrations of 5-aza-2′-deoxycytidine (Sigma-Aldrich, A3656) or Trichostatin A (Sigma-Aldrich, T1952) 24 hours after passaging. TSA was purchased as a readymade 5 mM solution in DMSO, which was then diluted to a 0.05 μM or 0.1 μM concentration in P19 growth media. 5 mg of 5-aza-2′-deoxycytidine was dissolved in 1 mL of 1:1 acetic acid: water to make a 21.9 mM stock solution, which was then diluted in P19 growth media to 2 μM or 10 μM. Cells were assayed through flow cytometry after 24 hours. […]"}, "P19 cells": {"tested_on": "P19 cells", "test": "Standalone (intrinsic) promoter activity screen, UCOE-GFP construct lacking the Ef1a promoter", "assay_type": "cell-based, mouse", "conditions": "promoterless GFP construct, after two weeks of antibiotic selection", "text": "A schematic representation of the expression construct in which the candidate region (UCOE) is inserted upstream of the GFP gene in the absence of any other promoter sequences as used is shown as an inlay. As positive controls, the Ef1α promoter, the 2.2 kB A2UCOE sequence, and the 1.2 kB reverse orientation sequence 3′UCOE, were cloned into the same reporter construct as the candidate sequences. The percent GFP positive in the population was monitored as a metric for gene expression by flow cytometry analysis with each passage (% GFP). Stably transfected cells were assayed for % GFP+ and median fluorescent intensity (normalized to Ef1a promoter control). Data is reported as mean±SD from biological duplicates.\nP19 cells were seeded at 25,000 cells/well in 12 well plates. 24 h after seeding, cells were transfected using Lipofectamine™ 2000 transfection reagent (Thermo Fisher) according to the manufacturer's instructions using 500 ng DNA/well and 2.5 μL of Lipofectamine per well. 24 hours after transfection, selection was initiated with 1 μg/mL puromycin (Sigma-Aldrich) in regular growth media and, from then on, cells were passaged at 1:15 or 1:20 dilutions whenever cells were 80-90% confluent (every 2-3 days) with frequent refreshing of puromycin-containing media to clear dead cells. After approximately 14-16 days, remaining cells were assumed to be stably transfected and were changed to regular growth media to initiate silencing experiments. During silencing experiments, the P19 cells were passaged every 2-3 days and re-seeded at 15,000 cells/well.\nFluorescence data throughout silencing experiments was obtained using a MACSQuant® VYB flow cytometer (Miltenyi Biotec). EGFP was measured through the 488-nm laser and 525/50 nm band pass filter. Flow cytometry data was analyzed using the FlowJo™ single cell flow cytometry analysis software (Tree Star). After being gated for singlets and viability, GFP+ gates in FlowJo were drawn such that a non-transfected or non-transduced P19 cell population was at 1% GFP+. Median values reported are of cells within the GFP+ gate, both % GFP positive and median are reported with the standard deviation of biological replicates.\nAs A2UOCE dually functions as a protective regulatory element and a universal promoter, the candidate UCOEs were further screened for standalone promoter activity. A similar experiment as the aforementioned screen was performed using a similar expression construct that lacked the Ef1a promoter. This construct was used to assess whether the candidate sequences could drive reporter expression and act as stand-alone functional promoters. Candidates were compared to the positive control of the EF1a promoter, which had ˜70% GFP+ cells after two weeks of antibiotic selection, showing a distinct positive population in the fluorescence histogram. The GFP+ gate (i.e., flow cytometry fluorescence threshold for GFP+ cells) was set to encompass 1% of untransfected cells and then applied to all samples. […] Such a result appears as a bimodal distribution on a histogram, with a peak below the gate threshold (i.e., GFP negative cell population) and a peak above it (i.e., the distinct GFP positive population mentioned above). […] In this study, a % GFP+ of at least 50% is considered to reflect the existence of a second population in the histograms, and thus a binary indicator of promoter function. […] The median GFP intensity of the GFP+ population was used a measure of the strength of the promoter, and normalized to the Ef1a positive control as shown in FIG. 2C.\nThis aligns with previous observations that the RNPA2B1 promoter is much stronger than that of CBX3 (Zhang, F., et al. (2010) Mol Ther, 18, 1640-1649 (7)). However, the RNPA2B1 promoter in A2UCOE is only 30% as strong as the EF1α promoter. […]"}}}
{"molecule": "CC(/C=C/C(=O)NO)=C\\[C@@H](C)C(=O)c1ccc(N(C)C)cc1", "note": "[TSA, trichostatin A]", "values": [{"measurement": "reactivation of GFP expression", "setting": "Transduced P19 cells", "result": "dose-dependent recovery of GFP expression"}, {"measurement": "silenced cells rescued", "setting": "Transduced P19 cells; highest dose of TSA, day 24 cells", "result": "about 25%"}]}
{"molecule": "Nc1ncn([C@@H]2O[C@H](CO)[C@@H](O)[C@H]2O)c(=O)n1", "note": "[Candidate 5-aza, 5-azacytidine]", "values": [{"measurement": "reactivation of GFP expression", "setting": "Transduced P19 cells", "result": "dose-dependent increase in % GFP positive cells"}, {"measurement": "silenced cells rescued", "setting": "Transduced P19 cells; highest dose of 5-aza, day 18 cells", "result": 63, "unit": "%"}]}
{"molecule": "B1", "values": [{"measurement": "% GFP+ cells", "setting": "P19 cells", "result": "~70", "unit": "%"}, {"measurement": "% GFP+ cells, representative flow cytometry example", "setting": "P19 cells; one representative example", "result": 74.2, "unit": "%"}]}
